Laboratory results taken from patent US8722714B2, “Oxazolidine derivatives as NMDA antagonists” (The Honk Kong University of Science and Technology, priority 2008, dated 2014).

Tests used:
[1] = tested on: NMDA receptor; assay: Whole-cell patch clamp of NMDA-induced current in hippocampal neurons; type: cell-based, rat; settings: for pooled NMDA current responses (normalized peak and plateau currents) / recovery of NMDA-induced current after compound was washed out: compound 500 uM co-applied with NMDA 200 uM; for pooled NMDA current responses (normalized peak and plateau currents): vs DMSO, n=6; for recovery of NMDA-induced current after compound was washed out: single hippocampal neuron
Description: Hippocampal neurons were prepared from embryonic day 18 Sprague-Dawley rats. After the hippocampus had been removed from the brain, isolated cells were plated onto Poly d-Lysine (PDL) (P0899, Sigma)-coated 35 mm dishes (153066, NUNC) at a density of 3×10^5 cell per plate using Neurobasal Medium (NB) (21103-049, Gibco) with B27 supplement (17504-044, Gibco), penicillin/streptomycin (15140, Gibco) and 1 mM L-glutamine (25030, Gibco). The cell culture was incubated at 37° C. in a humidified atmosphere of 5% CO2 in air. Half of the medium was changed with NB, B27 and 50 μM L-glutamine every 2 to 3 days. On day 12 in vitro (12 DIV), whole-cell patch clamp was performed. The internal solution contained 120 mM cesium chloride, 20 mM tetraethylammonium chloride, 2 mM magnesium chloride, 1 mM calcium chloride and 10 mM HEPES (pH 7.2). The external solution contained 137 mM sodium chloride, 1 mM sodium bicarbonate, 0.34 mM sodium phosphate dibasic, 5.37 mM potassium chloride, 0.44 mM potassium phosphate monobasic, 2.5 mM HEPES (pH 7.4) and 22.2 mM glucose. Samples mixed with 50 μM NMDA (M3262, Sigma) were arranged in linear array of up to 8 individual controlled pipes (List Medical, Germany) which were connected to solution reservoirs. Memantine (10 μM, M9292, Sigma) was used as a positive control. Pipettes were fire-polished to produce a pipette resistance of 3-5 MΩ. Holding potential of patched cells was kept at −80 mV and currents were recorded using Axopatch-200B amplifier (Axon Instruments, USA). Tetrodotoxin (5 μM) and bicuculline methiodide (20 μM) (0109, Tocris) were present in the bath solution to block synaptic transmission mediated by voltage-gated sodium channels and […], respectively. Data was analyzed by pClamp9 software and percentage of inhibition on NMDA-induced current was represented in comparison to solvent control.
The NMDA receptor is a gated ion channel, which allows inflow of current during a nerve impulse. Antagonists to the receptor would prevent the inflow of current.
In FIG. 1A, hippocampal neurons from embryonic day 18 rats were isolated, trypsinized, plated onto 35-mm plates at a density of 3×10^4 cells/plate and cultured in Neurobasal medium (NB) supplemented with B27 nutrient. Rat hippocampal neurons (10-14 DIV) were treated with NMDA (50 μM) in the absence or presence of the compound LC-02 (10 μg/mL). Data is presented as % of NMDA-induced current. DMSO is the solvent control.
In FIG. 1B, NMDA antagonistic effect of LC-02 on current responses of a single hippocampal neuron. NMDA (200 uM) was applied for 2.5 sec every 30 sec but these inter-response intervals have been deleted from the above figure for a better resolution of the kinetics of individual responses (blank space in trace). LC-02 (500 uM) was co-applied with NMDA.
In FIG. 1C, effects of LC-02 on pooled NMDA current responses. Normalized peak and plateau currents are shown in the absence (DMSO) and presence of LC-02.
In FIG. 8, (a) NMDA antagonistic effect of LC-06 on current responses of a single hippocampal neuron. NMDA (200 uM) was applied for 2.5 sec every 30 sec but these inter-response intervals have been deleted from the above figure for a better resolution of the kinetics of individual responses (blank space in trace). LC-06 (500 uM) was co-applied with NMDA. […] (b) Effects of LC-06 on pooled NMDA current responses. Normalized peak and plateau currents are shown in the absence (DMSO) and presence of LC-06.
In FIG. 9, (a) NMDA antagonistic effect of LC-24 on current responses of a single hippocampal neuron. NMDA (200 uM) was applied for 2.5 sec every 30 sec but these inter-response intervals have been deleted from the above figure for a better resolution of the kinetics of individual responses (blank space in trace). LC-24 (500 uM) was co-applied with NMDA. […] (b) Effects of LC-24 on pooled NMDA current responses. Normalized peak and plateau currents are shown in the absence (DMSO) and presence of LC-24. […]

[2] = tested on: scopolamine-induced memory deficit mice; assay: Morris Water Maze in scopolamine-induced memory deficit mice; type: in vivo; settings: scopolamine 4 mg/kg i.p.
Description: 6-8 week old outbred male I.C.R. mice, weighing 25-35g were housed two per cage in a climatically controlled animal room (23-25° C.) under 12 hours light/dark cycling. The animals were allowed access to water and food ad lib. The mice used for the experiment were brought to particular laboratory conditions for two days. All the experiments were conducted between 14:00 and 18:00. Scopolamine hydrobromide (Sigma, USA) was dissolved in saline in 4 mg/kg and administered in a volume of 10 ml/kg body weight. The experimental mice were randomly assigned into 3 groups, each consisting of 12 mice with similar mean body weights and age. Test sample was dissolved in physiological saline before the experiments each day. Scopolamine was administered through intraperitoneal injection (i.p.) at 30 minutes before the swimming tasks to induce memory deficit. Oral administrations (p.o.) of the test compound, or saline (0.9%) was started at the first day of the task and administrated according to a volume of 10 ml/kg body weight. Oral drug administrations were 45 minutes before the swimming tasks and conducted daily for 4 consecutive days until the end of the task.
Each mouse was subjected to 4 trials per day for 4 consecutive days. […] The student t-test with repeated measures was used to analyze latency values, and calculated as the mean latency periods for each mouse. Data are expressed as means±S.E.M, *=P<0.05 and **=P<0.005 versus scopolamine.
Scopolamine (SCOP; 4 mg/kg) was first administered intra-peritoneally to mice to impair their memories. […] On each day, the time taken for the mice to detect the hidden platform in the water maze was measured, in seconds. Measurements were calculated as the mean latency periods for each mouse; n=24. Data are expressed as mean±s.e.m. and compared to Saline/SCOP group. […]
In FIG. 13, mice were first orally administered LC-24 (30 mg/kg), scopolamine (4 mg/kg) was i.p. administered to mice 15 min to impair their memories. […] On each day, the time taken for the mice to detect the hidden platform in the water maze was measured, in seconds. […]

SMILES	NMDA induced current in hippocampal neurons ([1]; compound 10 μg/mL with NMDA 50 μM, rat hippocampal neurons 10-14 DIV)	pooled NMDA current responses (normalized peak and plateau currents) [1]	recovery of NMDA-induced current after compound was washed out [1]	escape latency ([2]; 30 or 100 mg/kg oral)	escape latency ([2]; 100 mg/kg oral, 4 days)	escape latency ([2]; 30 mg/kg oral, 4 days)
CC[C@H]1N[C@@H](CC(C)C)C(CC)(CC)O1 [LC-02]	decreases in NMDA induced current	significantly inhibits NMDA-induced current	Partial recovery of NMDA-induced current	decreases escape latencies		
CCCC1(CCC)O[C@@H](CC)N[C@H]1CC(C)C [LC-06]		significantly inhibits NMDA-induced current	Partial recovery of NMDA-induced current		reversed the increased escape latency induced by scopolamine	
CC[C@H]1N[C@@H](Cc2ccccc2)C(CC)(CC)O1 [LC-24]		significantly inhibits NMDA-induced current	Partial recovery of NMDA-induced current			reduced the increased escape latency induced by scopolamine
